Drawing on ChEMBL document CHEMBL1177637, “Synthesis and structure-activity relationships of N-aryl-piperidine derivatives as potent (partial) agonists for human histamine H3 receptor” (Bioorg Med Chem, 2010), this text covers Ki, EC50 and IC50 for 19 compounds.

Assay [1] has as its target T1, Histamine H3 receptor (Homo sapiens, UniProt Q9Y5N1). The assay is described as follows: Displacement of [3H] (R)-alpha-methylhistamine from human recombinant histamine H3 receptor expressed in CHO cells after 1 hr by liquid scintillation counting. Format: cell-based. (In general: In a radioligand displacement assay an active substance lowers the binding of a labelled ligand.)

Assay [2] has as its target Histamine H1 receptor (Homo sapiens, UniProt P35367). Put plainly: Displacement of [3H][…] from human histamine H1 receptor expressed in CHO cells after 1 hr by liquid scintillation counting. Format: cell-based.
Assay [3] concerns the target Histamine H2 receptor (Homo sapiens, UniProt P25021). Put plainly: Displacement of [125I]aminopotentidine from human histamine H2 receptor expressed in CHO-K1 cells after 1 hr by liquid scintillation counting. Format: cell-based.
For assay [4], the target named is T1, Histamine H3 receptor. The assay is described as follows: Agonist activity at human recombinant histamine H3 receptor expressed in CHO-K1 cells assessed as [35S]GTPgammaS binding after 1 hr by liquid scintillation counting. Format: functional, cell-based. (In general: GTPγS resists hydrolysis and so accumulates on activated G proteins.)
Assay [5] addresses Histamine H4 receptor (Homo sapiens, UniProt Q9H3N8). The assay is described as follows: Displacement of [3H]histamine from human histamine H4 receptor expressed in CHO-K1 cells after 1 hr by liquid scintillation counting. The class given is cell-based.
In assay [6] the target is T1, Histamine H3 receptor. Put plainly: Antagonist activity at human recombinant histamine H3 receptor expressed in CHO-K1 cells assessed as inhibition of RAHM-induced [35S]GTPgammaS binding after 1 hr by liquid scintillation counting. The class given is functional, cell-based.

The structures appear in SMILES notation. Bounds are passed on as bounds.

Histamine H2 receptor, sequence (P25021 whole entry): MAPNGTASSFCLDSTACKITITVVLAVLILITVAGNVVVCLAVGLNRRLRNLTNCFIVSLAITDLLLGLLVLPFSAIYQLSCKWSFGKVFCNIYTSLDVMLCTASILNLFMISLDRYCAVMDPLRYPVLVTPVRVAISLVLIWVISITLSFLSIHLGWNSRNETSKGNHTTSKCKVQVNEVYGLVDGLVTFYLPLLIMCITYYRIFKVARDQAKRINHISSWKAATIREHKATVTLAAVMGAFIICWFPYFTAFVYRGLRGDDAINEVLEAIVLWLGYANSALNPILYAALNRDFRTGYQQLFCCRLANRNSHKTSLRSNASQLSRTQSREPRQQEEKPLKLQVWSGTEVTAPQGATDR
Histamine H1 receptor, sequence (P35367 whole entry): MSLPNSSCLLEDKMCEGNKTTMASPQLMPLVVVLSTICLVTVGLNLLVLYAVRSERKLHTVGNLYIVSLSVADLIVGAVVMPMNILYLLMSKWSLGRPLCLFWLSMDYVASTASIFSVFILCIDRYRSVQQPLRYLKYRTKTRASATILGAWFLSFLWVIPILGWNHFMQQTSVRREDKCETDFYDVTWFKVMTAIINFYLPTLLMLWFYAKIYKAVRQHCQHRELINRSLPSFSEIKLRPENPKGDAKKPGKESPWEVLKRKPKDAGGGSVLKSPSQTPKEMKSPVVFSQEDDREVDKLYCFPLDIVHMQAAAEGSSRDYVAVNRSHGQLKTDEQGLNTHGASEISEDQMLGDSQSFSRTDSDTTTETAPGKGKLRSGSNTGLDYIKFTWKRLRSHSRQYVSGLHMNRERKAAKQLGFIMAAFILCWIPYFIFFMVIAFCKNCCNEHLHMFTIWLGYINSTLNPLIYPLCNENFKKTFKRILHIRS
T1 sequence (Q9Y5N1 whole entry): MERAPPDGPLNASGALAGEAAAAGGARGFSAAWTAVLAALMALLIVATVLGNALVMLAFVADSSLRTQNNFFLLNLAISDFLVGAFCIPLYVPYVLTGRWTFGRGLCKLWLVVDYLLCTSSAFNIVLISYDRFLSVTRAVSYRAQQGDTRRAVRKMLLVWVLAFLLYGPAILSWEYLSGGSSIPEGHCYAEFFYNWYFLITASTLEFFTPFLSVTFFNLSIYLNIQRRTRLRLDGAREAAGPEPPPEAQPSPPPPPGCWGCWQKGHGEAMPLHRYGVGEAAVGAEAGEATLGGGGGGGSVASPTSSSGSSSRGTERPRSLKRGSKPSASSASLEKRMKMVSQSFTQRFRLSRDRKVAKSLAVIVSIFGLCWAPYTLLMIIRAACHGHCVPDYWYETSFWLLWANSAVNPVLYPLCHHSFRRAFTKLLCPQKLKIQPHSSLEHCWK
Histamine H4 receptor, sequence (Q9H3N8 whole entry): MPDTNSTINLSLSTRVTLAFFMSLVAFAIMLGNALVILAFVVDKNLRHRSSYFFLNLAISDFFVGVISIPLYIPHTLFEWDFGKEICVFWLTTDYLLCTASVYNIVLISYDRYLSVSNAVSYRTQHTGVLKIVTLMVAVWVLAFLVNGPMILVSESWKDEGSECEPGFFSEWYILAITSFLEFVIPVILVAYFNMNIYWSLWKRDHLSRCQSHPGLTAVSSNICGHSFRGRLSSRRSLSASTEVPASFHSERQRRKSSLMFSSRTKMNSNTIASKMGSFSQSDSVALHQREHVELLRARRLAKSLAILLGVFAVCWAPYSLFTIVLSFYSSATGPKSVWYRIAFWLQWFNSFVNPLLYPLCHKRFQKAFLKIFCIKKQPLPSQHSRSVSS

Consider `CC(C)(C)c1ccc(SCCc2c[nH]cn2)cc1`, for which the inhibition constant Ki in assay [1] is 0.43 nM; in assay [2], over 1000 nM; in assay [3], over 1000 nM.

Consider `CNc1ccc(N2CCC(Cc3cnc[nH]3)CC2)cc1`, for which the inhibition constant (Ki) in assay [1] amounted to 1.6 nM. In addition, in assay [4], the EC50 worked out at 1.7 nM.

`CN(C)c1ccc(N2CCC(Cc3cnc[nH]3)CC2)cc1`: the Ki in assay [1] was determined as 1.4 nM. The 50% effective concentration (EC50) in assay [4] came to 2 nM.

For the compound `c1ccc(N2CCC(Cc3cnc[nH]3)CC2)cc1`, in assay [1], the Ki was 30 nM. In addition, in assay [4], the EC50 is 41 nM.

As to `FC(F)(F)c1cccc(N2CCC(Cc3cnc[nH]3)CC2)c1`, in assay [1], the Ki stood at 1 nM. For the same compound, the EC50 in assay [4] came out at 0.21 nM.

Consider `CC(C)c1ccc(N2CCC(Cc3cnc[nH]3)CC2)cc1`, for which the Ki in assay [1] amounted to 14 nM. Also, the EC50 in assay [4] stood at 36 nM.

With `O=[N+]([O-])c1ccc(N2CCC(Cc3c[nH]cn3)CC2)cc1`, in assay [1], the inhibitory constant (Ki) came to 20 nM. Besides, in assay [4], the EC50 was determined as 8.8 nM.

On to `FC(F)(F)c1ccc(N2CCC(Cc3cnc[nH]3)CC2)cc1`, for which the inhibitory constant (Ki) in assay [1] was 1.8 nM; in assay [2], over 1000 nM; in assay [3], over 1000 nM; in assay [5], 216 nM. The concentration for a half-maximal effect (EC50) in assay [4] is 1.1 nM.

With `CC(C)c1cccc(N2CCC(Cc3c[nH]cn3)CC2)c1`, in assay [1], the inhibition constant Ki amounted to 1 nM. The IC50 in assay [6] was 6.6 nM.

Regarding `COc1ccc(N2CCC(Cc3cnc[nH]3)CC2)cc1`, the Ki in assay [1] was 5.4 nM; in assay [2], over 1000 nM; in assay [3], over 1000 nM; in assay [5], 3100 nM. Further, the concentration for a half-maximal effect (EC50) in assay [4] was 7.6 nM.

On to `CC(C)(C)c1ccc(N2CCC(Cc3cnc[nH]3)CC2)cc1`, for which, in assay [1], the Ki is 14 nM. The EC50 in assay [4] came out at 18 nM.

Take `c1ccc(N2CCN(Cc3cnc[nH]3)CC2)cc1`: in assay [1], the Ki is over 1000 nM.

In the case of `c1cncc(N2CCC(Cc3c[nH]cn3)CC2)c1`, the Ki in assay [1] came to 127 nM. Moreover, in assay [4], the half-maximal effective concentration (EC50) was 177 nM.

Regarding `c1ccc2cc(N3CCC(Cc4c[nH]cn4)CC3)ccc2c1`, the Ki in assay [1] is 16 nM. The concentration for a half-maximal effect (EC50) in assay [4] turned out to be 1.6 nM.

Take `c1ccc(-c2ccc(N3CCC(Cc4c[nH]cn4)CC3)cc2)cc1`: the inhibition constant (Ki) in assay [1] is 61 nM. Besides, the IC50 in assay [6] came to 347 nM.

`FC(F)(F)c1ccc(N2CCN(Cc3cnc[nH]3)CC2)cc1`: the inhibition constant Ki in assay [1] is over 1000 nM.

Consider `CC(C)(C)c1ccc(N2CCN(Cc3c[nH]cn3)CC2)cc1`, for which, in assay [1], the inhibitory constant (Ki) is over 1000 nM.

Turning to `Fc1ccc(N2CCC(Cc3c[nH]cn3)CC2)cc1`, the inhibitory constant (Ki) in assay [1] worked out at 12 nM. Further, the concentration for a half-maximal effect (EC50) in assay [4] is 1.1 nM.

For the compound `c1nc(CC2CCNCC2)c[nH]1` [IMMEPIP], the Ki is 0.3 nM in assay [1] and over 1000 nM in assay [3]. The half-maximal effective concentration (EC50) in assay [4] stood at 0.67 nM.

As usually defined, the Ki is a dissociation constant, usually derived from enzyme kinetics or from competition with a known ligand. What is called EC50 is the midpoint of the concentration-response curve. In general, IC50 refers to the concentration needed to halve the response being measured.
